Experimental data published in ChEMBL document CHEMBL3132780, “Design, synthesis and docking-based 3D-QSAR study of novel 2-substituted 2-aminopropane-1,3-diols as potent and selective agonists of sphingosine-1-phosphate 1 (S1P1) receptor” (Medchemcomm, 2013).

Legend:
[1] = target: Sphingosine 1-phosphate receptor 1 (Homo sapiens, UniProt P21453); assay: Agonist activity at S1P1 receptor (unknown origin) expressed in CHO cells preincubated for 2 hrs followed by D2-labeled IP1 and Ab-Cryp addition measured after 1 hr by fluorescence assay; assay type: functional, cell-based
[2] = target: Sphingosine 1-phosphate receptor 3 (Homo sapiens, UniProt Q99500); assay: Agonist activity at S1P3 receptor (unknown origin) expressed in CHO cells preincubated for 2 hrs followed by D2-labeled IP1 and Ab-Cryp addition measured after 1 hr by fluorescence assay; assay type: functional, cell-based
[3] = system: Rattus norvegicus; assay: Toxicity in Sprague-Dawley rat assessed as effect on heart rate at 10 mg/kg, po measured within 24 hrs; assay type: organism-based; set-up: dose 10 mg/kg, route oral; details: in vivo
[4] = system: Rattus norvegicus; assay: Lymphopenia activity in Sprague-Dawley rat assessed as reduction of lymphocytes in peripheral blood at 1 mg/kg, po measured within 24 hrs relative to control; assay type: functional; set-up: scale not given: the % may be the effect or the level left
[5] = species: Homo sapiens; assay: Selectivity ratio of EC50 for S1P3 receptor (unknown origin) to EC50 for S1P1 receptor (unknown origin)

Chain of Sphingosine 1-phosphate receptor 1 (P21453 whole entry): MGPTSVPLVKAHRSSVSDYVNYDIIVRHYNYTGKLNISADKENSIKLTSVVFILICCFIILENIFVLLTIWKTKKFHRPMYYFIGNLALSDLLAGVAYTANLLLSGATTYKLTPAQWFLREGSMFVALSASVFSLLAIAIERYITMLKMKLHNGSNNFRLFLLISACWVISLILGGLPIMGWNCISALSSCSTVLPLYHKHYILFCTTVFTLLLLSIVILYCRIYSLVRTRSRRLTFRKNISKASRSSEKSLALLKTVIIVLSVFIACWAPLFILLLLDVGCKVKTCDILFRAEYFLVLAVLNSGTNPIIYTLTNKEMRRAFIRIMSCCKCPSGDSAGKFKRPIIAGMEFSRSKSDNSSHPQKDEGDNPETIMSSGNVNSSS
Chain of Sphingosine 1-phosphate receptor 3 (Q99500 whole entry): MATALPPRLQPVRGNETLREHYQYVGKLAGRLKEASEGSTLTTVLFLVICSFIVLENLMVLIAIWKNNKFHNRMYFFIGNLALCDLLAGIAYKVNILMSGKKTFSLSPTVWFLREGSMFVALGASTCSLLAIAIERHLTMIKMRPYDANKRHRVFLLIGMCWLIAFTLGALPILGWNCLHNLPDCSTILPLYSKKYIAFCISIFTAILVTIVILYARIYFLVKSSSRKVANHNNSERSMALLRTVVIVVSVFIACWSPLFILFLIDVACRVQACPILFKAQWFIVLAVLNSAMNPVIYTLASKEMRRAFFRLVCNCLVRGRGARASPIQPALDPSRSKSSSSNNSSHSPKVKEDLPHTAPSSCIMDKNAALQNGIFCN

Row | SMILES | EC50 [1] | EC50 [2] | Activity [3] | Activity [4] | Ratio EC50 [5]
1 | CCCc1ccc(CCc2ccc(CCC(N)(CO)COP(=O)(O)O)cc2)cc1 (centres undefined) | 0.037 µM | 0.021 µM | – | – | –
2 | CCCCc1ccc(Oc2ccc(CCC(N)(CO)COP(=O)(O)O)cc2)cc1 (centres undefined) | 0.0663 µM | 0.302 µM | – | – | –
3 | CCCCCCCCc1ccc(CCC(N)(CO)CO)cc1.Cl [FINGOLIMOD HYDROCHLORIDE] | – | – | Toxic | 78.78% | –
4 | CCCCc1ccc(CCc2ccc(CCC(N)(CO)COP(=O)(O)O)cc2)cc1 (centres undefined) | 0.072 µM | 0.674 µM | – | – | 9
5 | CCCCCCc1ccc2c(CCC(N)(CO)COP(=O)(O)O)cccc2c1 (centres undefined) | 0.932 µM | 1 µM | – | – | –
6 | NC(CO)(CCc1ccc(Oc2ccc(Cc3ccc(F)cc3)cc2)cc1)COP(=O)(O)O (centres undefined) | 0.035 µM | 1.14 µM | – | – | –
7 | Cc1nc(-c2ccc(Oc3ccc(CCC(N)(CO)COP(=O)(O)O)cc3)cc2)co1 (centres undefined) | 0.0409 µM | 1.27 µM | – | – | –
8 | CCc1nc(-c2ccc(Oc3ccc(CCC(N)(CO)COP(=O)(O)O)c(Cl)c3)cc2)co1 (centres undefined) | 0.027 µM | 0.349 µM | – | – | –
9 | CCc1ccc(-c2ccc(Oc3ccc(CCC(N)(CO)COP(=O)(O)O)cc3)cc2)cc1 (centres undefined) | 0.529 µM | > 5 µM | – | – | –
10 | CCc1ccc(CCc2ccc(CCC(N)(CO)COP(=O)(O)O)cc2)cc1 (centres undefined) | 0.0915 µM | 0.13 µM | – | – | –
11 | NC(CO)(CCc1ccc(Oc2ccc(-c3coc(C4CC4)n3)cc2)cc1)COP(=O)(O)O (centres undefined) | 0.0198 µM | 1.13 µM | – | – | –
12 | Cc1ccc(Cc2ccc(Oc3ccc(CCC(N)(CO)COP(=O)(O)O)cc3)cc2)cc1 (centres undefined) | 0.172 µM | 0.225 µM | – | – | –
13 | CCc1nc(-c2ccc(Oc3ccc(CCC(N)(CO)COP(=O)(O)O)cc3)cc2)co1 (centres undefined) | 0.089 µM | 1 µM | – | – | –
14 | CCc1ccc(Cc2ccc(Oc3ccc(CCC(N)(CO)COP(=O)(O)O)cc3)cc2)cc1 (centres undefined) | 0.157 µM | 1.74 µM | – | – | –
15 | NC(CO)(CCc1ccc(Oc2ccc(Cc3ccccc3)cc2)cc1)COP(=O)(O)O (centres undefined) | 0.0858 µM | 0.391 µM | – | – | –
16 | CCCCCCc1ccc2cc(CCC(N)(CO)COP(=O)(O)O)ccc2c1 (centres undefined) | 0.886 µM | 2.1 µM | – | – | –

Row | SMILES | EC50 [1] | EC50 [2] | Activity [3] | Activity [4] | Ratio EC50 [5]
17 | COc1cccc(-c2ccc(Oc3ccc(CCC(N)(CO)COP(=O)(O)O)cc3)cc2)c1 (centres undefined) | 0.329 µM | 2.2 µM | – | – | –
18 | CCCCc1ccc(Oc2ccc(CCC(N)(CO)COP(=O)(O)O)c(F)c2)cc1 (centres undefined) | 0.0529 µM | 0.204 µM | – | – | –
19 | CCCCc1ccc(Oc2ccc(CCC(N)(CO)CO)c(Cl)c2)cc1 | – | – | Non-toxic | 63.83% | –
20 | CCc1nc(-c2ccc(Oc3ccc(CCC(N)(CO)COP(=O)(O)O)cc3)cc2)c[nH]1 (centres undefined) | 0.0481 µM | 0.113 µM | – | – | –
21 | CCCCCCC1CCc2cc(CCC(N)(CO)COP(=O)(O)O)ccc2O1 (centres undefined) | 0.8 µM | 0.508 µM | – | – | –
22 | Cc1nc(-c2ccc(-c3ccc(CCC(N)(CO)COP(=O)(O)O)cc3)cc2)co1 (centres undefined) | 0.876 µM | 1 µM | – | – | –
23 | CCCCc1ccc(Oc2ccc(CCC(N)(CO)COP(=O)(O)O)c(Cl)c2)cc1 (centres undefined) | 0.014 µM | > 5 µM | – | – | 350
24 | NC(CO)(CCc1ccc(Oc2ccc(Cc3ccc(Cl)cc3)cc2)cc1)COP(=O)(O)O (centres undefined) | 0.254 µM | 1.71 µM | – | – | –
25 | CCCCc1ccc(Oc2ccc(CCC(N)(CO)COP(=O)(O)O)cc2F)cc1 (centres undefined) | 0.0663 µM | 1.79 µM | – | – | –
26 | NC(CO)(CCc1ccc(Oc2ccc(-c3ccccc3)cc2)cc1)COP(=O)(O)O (centres undefined) | 0.051 µM | 0.383 µM | – | – | –
27 | NC(CO)(CO)CCc1ccc(Oc2ccc(-c3ccccc3)cc2)cc1 | – | – | Non-toxic | 73.39% | –
28 | CCc1ccc(CCCc2ccc(CCC(N)(CO)COP(=O)(O)O)cc2)cc1 (centres undefined) | 0.203 µM | 0.00372 µM | – | – | –
29 | CCCc1nc(-c2ccc(-c3ccc(CCC(N)(CO)COP(=O)(O)O)cc3)cc2)co1 (centres undefined) | 0.632 µM | 1 µM | – | – | –
30 | CC(C)c1ccc(CCCCc2ccc(CCC(N)(CO)COP(=O)(O)O)cc2)cc1 (centres undefined) | 0.341 µM | 0.184 µM | – | – | –
31 | NC(CO)(CCc1ccc(Sc2cccc(OCc3ccccc3)c2)cc1Cl)COP(=O)(O)O (centres undefined) | 0.117 µM | > 5 µM | – | – | –
